Results from the pKa sets of Baltruschat and Czodrowski (2020).
Where “and” joins values, the source holds several entries; their conditions need not be identical. Equal entries are not always repeated.

| Compound | pKa (basic group) | pKa (acidic group) |
| --- | --- | --- |
| NCCCCCCC(=O)[O-] | 10.9 | – |
| OC[C@@H]1O[C@H](CN2CCOCC2)[C@@H](O)[C@H](O)[C@@H]1O | 6.1 | – |
| Cc1ccccc1[N+](C)(C)O | – | 4.78 |
| O=[N+]([O-])c1cccc(S(=O)O)c1 | – | 1.21 |
| CC(=O)c1ccccc1O | – | 10.4 |
| C[NH2+]CC(=O)O | – | 2.24 |
| O=C1C=CC(=NO)C=C1 | – | 6.36 |
| COc1ccccc1C(=O)O | – | 4.05 |
| CNC(=O)/C=C(/C)C(=O)O | – | 3.23 |
| CCc1ccc(OC)c(C(=O)NC[C@H]2CCC[NH+]2CC)c1O | – | 8.7 |
| O=C(O)C[NH+](CCNS(=O)(=O)c1ccccc1)CC(=O)O | – | 2.1 |
| c1ccc(-c2ccc3nc(CN4CCOCC4)cn3n2)cc1 | 6.25 | – |
| COc1c(N)cccc1C(=O)N[C@@H]1C[C@H]2CC[C@@H](C1)N2Cc1ccccc1 | 8.86 | – |
| Cc1nc2ccccc2c(NCCC[NH+](C)C)c1[N+](=O)[O-] | 5.35 | – |
| COc1cc2c(O)cc(C)[nH+]c2c2c(C)c(C)oc12 | – | 2.91 |
| COc1cc(OC)nc([N-]S(=O)(=O)c2ccc(O)cc2)n1 | – | 9.05 |
| CCc1ccc(C(C)C)cc1O | – | 10.6 |
| Nc1c2ccccc2[nH+]c2c(O)cccc12 | – | 7.05 |
| CC(=O)SCCN(C)C | 8.27 | – |
| Cc1ccc(N2CCCC(=O)C(O)CCC2)cc1 (stereo unspecified) | 3.2 | – |
| CCc1cncc(C)c1 | 5.2 | – |
| C1CNCCSCCN1 | 10 | – |
| [S-]c1ccccn1 | 9.89 | – |
| C[NH+](C)CCC/N=C(\c1ccccc1)c1ccccc1O | 3.31 | – |

| Compound | pKa (basic group) | pKa (acidic group) |
| --- | --- | --- |
| COc1ccc2c3c1O[C@H]1[C@@H](O)C=C[C@H]4[C@@H](C2)N(CCC#N)CC[C@@]341 | 5.68 | – |
| O=C1NC(=O)C(=NO)C(=O)N1 | – | 4.58 |
| Oc1ccccc1CN1CCOCC1 | 7.71 | 10.3 |
| O=C(O[C@H]1O[C@@H](C(=O)O)[C@H](O)[C@@H](O)[C@@H]1O)c1ccccc1 | – | 2.85 |
| O[n+]1c2ccccc2nc2ccccc21 | – | 1.12 |
| Cn1cncc(-c2ccccc2)c1=O | 1.5 | – |
| O=C(O)c1cc([N+](=O)[O-])cs1 | – | 2.83 |
| C[C@H](N)[C@@H](C)N | 9.88 | – |
| Oc1cccc2nccnc12 | 0.85 | 8.8 |
| COc1ccc(/C(=C\C(=O)c2ccc(S(=O)(=O)[O-])cc2)CC(=O)c2ccc(S(=O)(=O)[O-])cc2)cc1S(=O)(=O)[O-] | – | 10.7 |
| Cn1nncc1Nc1ccccc1 | 1.73 | – |
| [NH3+]C(c1cccc(O)c1[O-])P(=O)([O-])[O-] (stereo unspecified) | – | 12.4 |
| Cc1nccn1C | 7.64 | – |
| CSc1ccc(N)c(I)c1 | 2.45 | – |
| Clc1ccc(CNc2ncnc3[nH]ncc23)cc1 | 3.96 | – |
| CC[NH+](CC)Cc1cccc(C)c1O | – | 10 |
| Cc1c(O)cncc1C1CCCCC1 | 5.6 | 10 |
| C1CSCCN1 | 9.05 | – |
| CC(O)C(C(=O)O)c1ccc(-c2ccccc2)cc1 (stereo unspecified) | – | 4.3 |
| O=[N+]([O-])c1cccc(S(=O)(=O)O)c1 | – | -7.1 |
| CS(=O)c1ccc(O)cc1 (stereo unspecified) | – | 8.28 |
| Nc1ccccc1O | 4.55 | 9.71 |
| COc1ncnc2nccnc12 | 1.04 | – |
| C=CC(C)(C)NC(C)(C)C=C | 10.1 | – |

| Compound | pKa (basic group) | pKa (acidic group) |
| --- | --- | --- |
| C=C(C)[C@H]1C[NH2+][C@H](C(=O)O)[C@H]1CC(=O)O | – | 2.1 |
| O=[N+]([O-])c1ccc(/C(=N\O)c2ccccc2)cc1 | – | 10.8 |
| O=[N+]([O-])c1ccc(NCO)cc1 | -0.33 | – |
| Cc1ccc(C(=O)S)cc1 | -5.19 | 2.59 |
| O=S(=O)(Nc1ncccn1)c1ccccc1 | 0.15 | 5.91 |
| Cc1ccc2c(c1)C([P+](c1ccccc1)(c1ccccc1)c1ccccc1)c1ccccc1-2 (stereo unspecified) | – | 9.38 |
| CCOCCNc1cccc(OC)c1 | 3.67 | – |
| Nc1ccc2c(c1)Cc1c(O)cccc1-2 | 4.63 | – |
| Nc1ncnc2ncn([C@H]3O[C@H](CO)[C@@H](O)[C@H]3O)c12 | 3.9 | – |
| Nc1ccc2c([N+](=O)[O-])cccc2c1 | 3.16 | – |
| Cc1ccccc1C(=NCCCC[NH+](C)C)c1ccccc1C | 5.18 | – |
| c1cc(N2CCOCC2)ccn1 | 8.79 | – |
| O=C1CCc2cc([N+](=O)[O-])ccc2C1 | – | 10.1 |
| CCn1cc(C#N)c(=O)c2ccccc21 | -1.55 | – |
| Clc1cccnc1 | 2.77 | – |
| c1ccc2c(c1)CNCCC[NH2+]Cc1ccccc1OCCO2 | 7.82 | – |
| C#CC(C)(C)N(C)C(C)(C)C#C | 6.65 | – |
| Cc1ccccc1NC1CCCC1 | 5.07 | – |
| NCCNCCO | 9.67 | – |
| c1ccc(NCC[NH+]2CCCCC2)cc1 | 2.8 | – |
| C[C@@H]1C[C@@H]1C(=O)O | – | 5.03 |
| CCc1cccnc1 | 5.57 | – |
| NS(=O)(=O)c1cccc(C(=O)O)c1 | – | 3.61 |
| OC(O)=C1c2ccccc2-c2ccccc21 | – | 2.01 |

| Compound | pKa (basic group) | pKa (acidic group) |
| --- | --- | --- |
| CN(C)CCSCC[NH+](C)C | 8 | – |
| C[n+]1cccc2cc(O)ccc21 | – | 7.15 |
| Cc1cc(N)c(C)cn1 | 9.68 | – |
| COc1cc(S(C)=O)ccc1-c1nc2ncccc2[nH]1 (stereo unspecified) | 3.91 and 3.89 | – |
| [NH3+]CCCCCCC(=O)O | – | 4.44 |
| C[n+]1cnccc1[O-] | 1.84 | – |
| CC(=O)Nc1ccc(S)cc1 | – | 6.08 |
| CN(C)CCCCNC(=O)/C=N/[O-] | 10.1 | – |
| CCOCCn1c(CN2CCCN(CCCCn3cc(C(=O)[O-])cn3)CC2)nc2ccccc21 | 9.1 | – |
| CC1(C)[C@H]2CC[C@@]1(C)[C@@H](O)[C@@H]2C(=O)O | – | 2.74 |
| Cc1nn(C)c(C)c1C | 4.48 | – |
| N#CC1CC2CCN1CC2 (stereo unspecified) | 5.85 | – |
| Nc1nc([Se-])c2ncn([C@H]3O[C@@H](CO)[C@H](O)[C@@H]3O)c2n1 | 7.68 | – |
| NCC[NH2+]CCc1ccccc1 | 6.59 | – |
| Cn1cnc2nc([O-])nc(O)c21 | – | 10.6 |
| Cc1ccc2nccc(NCCC[NH+](C)C)c2c1[N+](=O)[O-] | 6.15 | – |
| Cn1ccc2ccccc2c1=O | -1.8 | – |
| Nc1nc2nc[nH]c2c(O)[nH+]1 | – | 3.25 |
| CCc1ccc(C(=O)[O-])nc1 | 5.86 | – |
| CNNC1CC[NH+](C)CC1 | 5.95 | – |
| CC(O)[C@@H]1C[NH2+][C@H](C(=O)O)[C@H]1CC(=O)O (stereo partly specified) | – | 2.94 |
| Cn1/c(=N/N)ccc2ccccc21 | 9.17 | – |
| CCOc1ccc(C)c(C(=O)O)c1 | – | 3.86 |
| NC(=[NH2+])NOCC(=O)O | – | 2.69 |

| Compound | pKa (basic group) | pKa (acidic group) |
| --- | --- | --- |
| CC#CC#CC=C=C[C@@H](O)CCC(=O)O | – | 4.9 |
| COc1ccc2[nH]cc(CC(C)N)c2c1 (stereo unspecified) | 10.3 | – |
| Cc1cc(Cc2cc([N+](=O)[O-])ccc2O)cc(C)c1O | – | 7.12 |
| Cc1cc(-n2nc(C)cc2C)[nH]n1 | 2.23 | – |
| c1ccc2c(c1)C1CCN2CC1 | 7.79 | – |
| CCCCC(CC)C(=O)O[C@H]1O[C@@H](C(=O)O)[C@H](O)[C@@H](O)[C@@H]1O (stereo partly specified) | – | 3.08 |
| NNC(=O)c1ccccn1 | 2.86 | 11.8 |
| CN(C)C(=O)c1ncnc2nc[nH]c12 | – | 7.9 |
| [O-]c1ccc2ccccc2[n+]1O | – | 6.88 |
| CCc1cc(-c2ccccc2)nnc1NCC[NH+]1CCOCC1 | 4.37 | – |
| CCCCSC(=N)c1ccccc1 | – | 8.21 |
| CC1(C)CC(O)[N+](C)(C)C1 (stereo unspecified) | – | 8.7 |
| Cc1cccc([Se](=O)O)c1 | – | 4.8 |
| CO[C@H]1C[C@@H]1C(=O)O | – | 4.47 |
| NCC(N)C[NH3+] | 7.95 | – |
| [O-]c1ncnc2[nH]cnc12 | 8.71 | – |
| CC(C)[NH2+]CC(=O)O | – | 2.35 |
| CCNNC | 7.5 | – |
| Cc1ccccc1/C(=N/CCC[NH+](C)C)c1ccccc1 | 4.29 | – |
| CC(=O)NC(Cc1c[nH]c[nH+]1)C(=O)O (stereo unspecified) | – | 2.94 |
| CCNC(=O)/C=C(/[70SH])c1ccccc1 | – | 4.73 |
| CCNCC(=O)N(CC)CC | 8.78 | – |
| CC(=O)/C=C(/C)O | – | 7.64 |
| Nc1nc2cccc[n+]2o1 | – | 7.18 |

| Compound | pKa (basic group) | pKa (acidic group) |
| --- | --- | --- |
| O=C(O)c1cc(Cl)co1 | – | 2.69 |
| CCSC(=O)c1ccc(C)cc1 | -4.2 | – |
| CCOc1ccc2nc3c(c(N4CCOCC4)c2c1)CCC3 | 7.11 | – |
| CCN(CC)c1nnc(-c2ccccc2)s1 | 3.09 | – |
| Cc1n[nH]c2ccc(N)cc12 | 5.25 | – |
| COc1ccc(N(C)C)cc1 | 5.86 | – |
| Cc1cc2nccc(NCCC[NH+](C)C)c2cc1[N+](=O)[O-] | 7.38 | – |
| N#CC(C#N)=NNc1ccc(OC(F)(F)F)cc1 | -0.78 | 6 |
| O=C(O)C1(C(=O)O)CCCC1 | – | 3.24 |
| CCCCSCC(=O)O | – | 3.81 |
| O=C/C(O)=C/O | – | 5.03 |
| Cn1cncn1 | 2.31 | – |
| CCCC[C@H](N)C(=O)[O-] | 9.76 | – |
| CN(C)CCCCCCNC(=O)/C=N/[O-] | 10.4 | – |
| CN[C@H]1C[C@@H]1NC | 8.73 | – |
| N/C(=N\O)c1ccccc1 | 4.97 | – |
| Cc1ccc([N+](C)(C)O)cc1 | – | 4.32 |
| CN[C@H]1C[C@@H]1[NH2+]C | 5.65 | – |
| COc1ccc(-c2cnc(-c3ccc(C)cc3)o2)cc1 | 1.26 | – |
| Cc1c[n+](C)c([O-])nc1N | 4.76 | – |
| CSc1cccnc1 | 4.45 | – |
| Cc1nn(-c2ccccc2)c(O)c1Cc1ccccc1 | – | 11.8 |
| O=[N+]([O-])c1cccc(O)c1O | – | 6.64 |
| Sc1nc2[nH]cnc2c[nH+]1 | – | 0.5 |

| Compound | pKa (basic group) | pKa (acidic group) |
| --- | --- | --- |
| C=CC(CC(C)(C)CC(C)(C)C)c1ccc2cccnc2c1O (stereo unspecified) | 4.51 | 10 |
| O=S(=O)(O)c1ccc(Br)cc1 | – | -6.72 |
| CCNCc1ccccc1 | 9.75 | – |
| c1cc(-c2nn[nH]n2)cc(-c2nnn[nH]2)c1 | – | 3.38 |
| Cc1ccc(S(=O)(=O)NCCC(N)=[NH2+])cc1 | – | 9.49 |
| C(=C\c1nnnn1-c1ccccc1)/c1ccccc1 | -2.3 | – |
| CCCNCCN | 10.3 | – |
| C1CCN(N2CCCCC2)CC1 | 7.09 | – |
| OCCc1cnc(P(c2[nH]c(CCO)c[nH+]2)c2[nH]c(CCO)c[nH+]2)[nH]1 | 5.75 | – |
| Oc1ccc(-c2cc(=S)ss2)cc1 | – | 7.86 |
| Cc1cnc(N)s1 | 5.71 | – |
| O=C1CC(=O)C(=O)C1 | – | 3 |
| COc1ccc2c3c([nH]c2c1)C(C)NCC3 (stereo unspecified) | – | 15.6 |
| CN(C)c1cccc[n+]1O | – | 2.27 |
| CC(=O)c1ccccc1 | 18.3 | – |
| Nc1ncc([N+](=O)[O-])cn1 | – | 14.7 |
| C[N+](C)(C)CCc1ccc(O)cc1 | – | 9.8 |
| Nc1ccc2nc(/C=C/c3ccccc3)ccc2c1 | 5.5 | – |
